Consider one compound from patent US20060160814A1, “Phosphodiesterase 10 inhibitors” (priority 2004, published 2006).

Counter-ions that a name gives are not always drawn.

Take `COc1cc2nncc(C(C#N)C3=NC(C)(C)CN3C(C)C)c2cc1OC` (stereo not shown) (as salt: hydrochloride) [Compound 110, (4,5-Dihydro-4,4-dimethyl-1-isopropyl-1H-imidazol-2-yl) (6,7-dimethoxycinnolin-4-yl)-acetonitrile hydrochloride]: the melting point (usually the temperature, or range, at which the solid turns liquid) was 210 to 212 °C (dec.).
